Measurements reported in patent US11324768B2, “Applications of triacetyl-3-hydroxyl phenyl adenosine in treating vascular inflammations or improving vascular endothelium functions” (priority 2016, dated 2022).

Tested on: thoracic aorta
Test: Endothelial function of thoracic aorta in ApoE−/− mice (vascular ring, Ach / SNP relaxation)
Type: in vivo
Experimental: After 1 week of adaptive feeding, the animals were randomly divided into 7 groups according to body weight: normal control group, model control group A769662 (30 mg/kg) administration group, metformin (260 mg/kg) administration group, IMM-H007 low, medium, and high administration groups (50, 100, 200 mg/kg), 8 in each group, and were given a high-fat diet (78.6% basal diet, 10% lard, 1.0% cholesterol, 10% egg yolk powder, and 0.4% bile salt), and simultaneously administered intragastrically at a dose of 0.1 ml/10 g body weight, and were continuously administered and fed for 8 weeks to establish an atherosclerosis model.
The mice were anesthetized. The thoracic aorta was quickly taken, after carefully stripping the surrounding tissue, was cut into a vascular ring with a length of about 3 mm. The vascular ring was carefully hung on a tonotransducer, given an initial tension of 0.5 g and equilibrated for 90 minutes or more. During the equilibration process, the fluid was replaced every 20 minutes, aeration was maintained and the temperature was maintained at 37° C. The vascular ring was equilibrated for about 1 hour and stimulated twice with saturated KCl (60 mM) to detect whether the blood vessel was active. After vasoconstriction was stabilized, KCl was washed away immediately. After the last replacement of the fluid, the vascular ring was equilibrated for 20 minutes, given phenylephrine 1 μM to stimulate vasoconstriction, and after vasoconstriction was stabilized, it was cumulatively administered with acetylcholine (Ach, 1×10^−10 to […]) and sodium nitroprusside (SNP, 10^−10 to 10^−4 M) to record the vasodilation curve. Vasodilation rate=[PE-induced vascular tone (g)-vascular tension after addition of ACh (g)][…][PE contraction-induced tension (g)-basal vascular tone (g)]×100%.

CC(=O)OCC1OC(n2cnc3c(Nc4cccc(O)c4)ncnc32)C(OC(C)=O)C1OC(C)=O (stereo not drawn) [IMM-H007, 2′,3,′ 5′-triacetyl-N^6(3-hydroxyphenyl)adenosine]
sodium nitroprusside endothelium-independent relaxation of aortic vessel (50 mg/kg, 1 × 10^−4 M SNP): 97.8 ± 4.9%
acetylcholine endothelium-dependent relaxation of aortic vessel (50 mg/kg, 1 × 10^−5 M Ach): 91.0 ± 2.3 %
sodium nitroprusside endothelium-independent relaxation of aortic vessel (50 mg/kg, 1 × 10^−5 M SNP): 89.4 ± 6.8%
acetylcholine endothelium-dependent relaxation of aortic vessel (50 mg/kg, 1 × 10^−6 M Ach): 67.5 ± 11.0 %
sodium nitroprusside endothelium-independent relaxation of aortic vessel (50 mg/kg, 1 × 10^−6 M SNP): 87.2 ± 10.1%
acetylcholine endothelium-dependent relaxation of aortic vessel (50 mg/kg, 1 × 10^−7 M Ach): 54.1 ± 18.8 %
sodium nitroprusside endothelium-independent relaxation of aortic vessel (50 mg/kg, 1 × 10^−7 M SNP): 68.3 ± 20.5%
acetylcholine endothelium-dependent relaxation of aortic vessel (50 mg/kg, 1 × 10^−8 M Ach): 39.2 ± 14.0%
sodium nitroprusside endothelium-independent relaxation of aortic vessel (50 mg/kg, 1 × 10^−8 M SNP): 58.4 ± 13.8%
acetylcholine endothelium-dependent relaxation of aortic vessel (50 mg/kg, 1 × 10^−9 M Ach): 29.3 ± 11.2%
sodium nitroprusside endothelium-independent relaxation of aortic vessel (50 mg/kg, 1 × 10^−9 M SNP): 43.1 ± 24.6%
acetylcholine endothelium-dependent relaxation of aortic vessel (50 mg/kg, 1 × 10^−10 M Ach): 11.6 ± 7.0%
sodium nitroprusside endothelium-independent relaxation of aortic vessel (50 mg/kg, 1 × 10^−10 M SNP): 18.0 ± 16.3%
acetylcholine endothelium-dependent relaxation of aortic caused by high fat (50 mg/kg, compared with the model control group): significantly improve
sodium nitroprusside endothelium-independent relaxation of aortic vessel (200 mg/kg, 1 × 10^−4 M SNP): 97.9 ± 10.8%
acetylcholine endothelium-dependent relaxation of aortic vessel (200 mg/kg, 1 × 10^−5 M Ach): 97.8 ± 8.2 %
sodium nitroprusside endothelium-independent relaxation of aortic vessel (200 mg/kg, 1 × 10^−5 M SNP): 95.4 ± 8.5%
acetylcholine endothelium-dependent relaxation of aortic vessel (200 mg/kg, 1 × 10^−6 M Ach): 87.4 ± 10.9 %
sodium nitroprusside endothelium-independent relaxation of aortic vessel (200 mg/kg, 1 × 10^−6 M SNP): 94.1 ± 20.6%
acetylcholine endothelium-dependent relaxation of aortic vessel (200 mg/kg, 1 × 10^−7 M Ach): 64.2 ± 17.7 %
sodium nitroprusside endothelium-independent relaxation of aortic vessel (200 mg/kg, 1 × 10^−7 M SNP): 73.6 ± 23.3%
acetylcholine endothelium-dependent relaxation of aortic vessel (200 mg/kg, 1 × 10^−8 M Ach): 47.6 ± 22.5%
sodium nitroprusside endothelium-independent relaxation of aortic vessel (200 mg/kg, 1 × 10^−8 M SNP): 62.3 ± 22.7%
acetylcholine endothelium-dependent relaxation of aortic vessel (200 mg/kg, 1 × 10^−9 M Ach): 31.4 ± 18.5%
sodium nitroprusside endothelium-independent relaxation of aortic vessel (200 mg/kg, 1 × 10^−9 M SNP): 30.5 ± 20.8%
acetylcholine endothelium-dependent relaxation of aortic vessel (200 mg/kg, 1 × 10^−10 M Ach): 9.4 ± 3.9%
sodium nitroprusside endothelium-independent relaxation of aortic vessel (200 mg/kg, 1 × 10^−10 M SNP): 12.4 ± 8.4%
